This experiment concerns the target GSK-3β (Homo sapiens, UniProt P49841). Put plainly: GSK3 kinase inhibition assay, biotin-phosphopeptide substrate, streptavidin plate scintillation counting. It is filed as biochemical. Particulars: compound at 1 μM; 180 min at room temperature. As for the experimental part: (B) The compounds prepared in Example 1 above were assayed for activity as follows:
A 96-well round bottom plate was blocked by incubation with 400 μl/well 1% BSA/PBS for 60 min at room temperature. The blocking reagent was then aspirated. An enzyme/substrate buffer was prepared (1.225 ml 1M Tris-HCl, pH 7.5, 0.41 ml 1M MgCl2, 41 μl DTT, 250 μl 500 μg/ml GSK-3β, 9.5 μl 5 mg/ml biotin-phosphopeptide, 33.1 ml 1% BSA/PBS), and 300 μl enzyme/substrate/buffer was added to each well.
Varying concentrations of each compound were added to individual wells, or staurosporine in DMSO (final concentrations of staurosporine 100 nM or 20 nM). Next 50 μl/well ATP mixture (3.85 μl 10 mM cold ATP, 8 μl hot ATP, 5.5 ml H2O) was added, and the reaction allowed to proceed for 180 min at room temperature.
Three streptavidin-coated Labsystems Combiplate 8 plates were blocked with 1% BSA/PBS, 300 μl/well, for ≧60 min at room temperature, and the blocking reagent aspirated. Stopping reagent (50 μM ATP, 20 mM EDTA) (100 μl/well) was added to the streptavidin-coated plates, and 100 μl of the enzyme reaction mixture transferred to the streptavidin-coated plates in triplicate. […] Finally, Microscint-20 scintillation fluid (200 μl/well) was added to the plates, the plates sealed, and after incubating for 30 min, counted on a TopCount counter.

Structures are written as SMILES.

GSK-3β, sequence (P49841 whole entry, species assumed): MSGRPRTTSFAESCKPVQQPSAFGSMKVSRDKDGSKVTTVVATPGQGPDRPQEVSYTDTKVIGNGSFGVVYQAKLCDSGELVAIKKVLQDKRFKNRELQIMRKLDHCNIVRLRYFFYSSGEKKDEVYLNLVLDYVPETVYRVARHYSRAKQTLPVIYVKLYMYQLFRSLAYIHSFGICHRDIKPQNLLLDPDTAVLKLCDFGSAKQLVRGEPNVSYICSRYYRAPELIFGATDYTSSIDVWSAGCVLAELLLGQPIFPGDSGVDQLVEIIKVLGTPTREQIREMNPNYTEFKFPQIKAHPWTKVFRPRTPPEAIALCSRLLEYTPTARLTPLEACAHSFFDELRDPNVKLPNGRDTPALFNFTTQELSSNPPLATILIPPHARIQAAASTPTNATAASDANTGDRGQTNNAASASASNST

Turning to `COCC(=O)N(CC(N)=O)c1nc(NCc2ccc(C(F)(F)F)cc2)c2ncn(C)c2n1` [Compound 21208], the inhibition at 1 µM is 63%.

For orientation: inhibition means the drop in the measured response relative to a control, in per cent. A low value points to a weak effect.
